# Results from article PMC10533412, “Phosphoantigens glue butyrophilin 3A1 and 2A1 to activate Vγ9Vδ2 T cells” (Nature, 2023).
# Several values for one entry are separate records, joined by “and”; a condition that tells them apart may be missing. Identical values can stand only once.
# Test system: BTN2A−/− MIA PaCa-2 (BTN2A1/BTN2A2 KO) cells
# Assay: Cell killing assay with BTN2A−/− MIA PaCa-2 (BTN2A1/BTN2A2 KO) cells expressing BTN2A1/BTN2A2 variants
# Details: for cell killing, Means, Fig. 6e: N 4; for cell killing, single replicate, Fig. 6e: listed as HMBPP
# [1] = 0.1 μM, cells expressing 2A1 (full)
# [2] = 0.1 μM, cells expressing 2A2 B30.2 W374R/M506T (with 2A1 other segments)
# [3] = 0.1 μM, cells expressing 2A2 W374R/M506T (with 2A1 EC)
# [4] = 0.1 μM, cells expressing 2A2 W374R/M506T (wtih 2A1 JM)
# [5] = 0.1 μM, cells expressing 2A2 W374R/M506T
# [6] = 1 μM, cells expressing 2A1 (full)
# [7] = 1 μM, cells expressing 2A2 B30.2 W374R/M506T (with 2A1 other segments)
# [8] = 1 μM, cells expressing 2A2 W374R/M506T (with 2A1 EC)
# [9] = 1 μM, cells expressing 2A2 W374R/M506T (wtih 2A1 JM)
# [10] = 1 μM, cells expressing 2A2 W374R/M506T
# [11] = 10 μM, cells expressing 2A1 (full)
# [12] = 10 μM, cells expressing 2A2 B30.2 W374R/M506T (with 2A1 other segments)
# [13] = 10 μM, cells expressing 2A2 W374R/M506T (with 2A1 EC)
# [14] = 10 μM, cells expressing 2A2 W374R/M506T (wtih 2A1 JM)
# [15] = 10 μM, cells expressing 2A2 W374R/M506T
# [16] = 2A1 WT, source data Ext. Fig. 3c
# [17] = 2A1 ∆C, source data Ext. Fig. 3c
# [18] = Ext. Fig. 6d, cells expressing 2A1 WT, three-parameter fit
# [19] = Ext. Fig. 6d, cells expressing 2A2 G352Y354QR/M506T/W374R, three-parameter fit
# [20] = Ext. Fig. 6d, cells expressing 2A2 G352Y354QR, three-parameter fit
# [21] = Ext. Fig. 6d, cells expressing 2A2 M506T, three-parameter fit
# Procedure: MIA PaCa-2 cells were infected with lentivirus bearing luciferase transgene. Luciferase-positive cells were plated at 5.0 × 10^3 cells per well in 384-well plates 1 day before transfection. All plasmids were transfected into BTN2A^−/− MIA PaCa-2 (BTN2A1/BTN2A2 KO) cells using Lipofectamine 2000 reagent. […] Stable-lite luciferase (Vazyme) was added to each well and the luciferase signal was immediately measured by using the PerkinElmer EnVision microplate reader.
# Percentage of lysis was calculated using the following equation: percentage of specific lysis = (maximum luciferase − experimental luciferase)/maximum luciferase × 100.
compound,measurement,setting,value
"C/C(=C\COP(=O)(O)OP(=O)(O)O)CO [Compound 1, (E)-4-hydroxy-3-methylbut-2-en-1-yl diphosphate]","cell killing, Means, Fig. 6e","0.1 μM, NT cells",15.31
same,"cell killing, single replicate, Fig. 6e","0.1 μM, NT cells",16.9534 and 12.1556 and 17.488 and 14.6256
same,"cell killing, Means, Fig. 6e",[1],43.2
same,"cell killing, single replicate, Fig. 6e",[1],41.0547 and 41.9242 and 44.3091 and 45.5217
same,"cell killing, Means, Fig. 6e",[2],37.63
same,"cell killing, single replicate, Fig. 6e",[2],30.7526 and 48.9339 and 41.228 and 29.5964
same,"cell killing, Means, Fig. 6e",[3],10.65
same,"cell killing, single replicate, Fig. 6e",[3],10.0494 and 11.5088 and 9.171 and 11.8833
same,"cell killing, Means, Fig. 6e",[4],21.79
same,"cell killing, single replicate, Fig. 6e",[4],18.9096 and 21.2355 and 31.0049 and 16.0148
same,"cell killing, Means, Fig. 6e",[5],6.989
same,"cell killing, single replicate, Fig. 6e",[5],8.189 and 6.668 and 2.002 and 11.0964
same,"cell killing, Means, Fig. 6e","1 μM, NT cells",19.83
same,"cell killing, single replicate, Fig. 6e","1 μM, NT cells",17.72 and 22.5709 and 17.5879 and 21.4385
same,"cell killing, Means, Fig. 6e",[6],47.49
same,"cell killing, single replicate, Fig. 6e",[6],44.8999 and 44.0198 and 51.2118 and 49.8148
same,"cell killing, Means, Fig. 6e",[7],47.88
same,"cell killing, single replicate, Fig. 6e",[7],42.711 and 50.2729 and 52.3554 and 46.1815
same,"cell killing, Means, Fig. 6e",[8],18.17
same,"cell killing, single replicate, Fig. 6e",[8],13.1292 and 15.284 and 20.3978 and 23.864
same,"cell killing, Means, Fig. 6e",[9],29.03
same,"cell killing, single replicate, Fig. 6e",[9],27.7855 and 29.0017 and 26.4668 and 32.8608
same,"cell killing, Means, Fig. 6e",[10],15.67
same,"cell killing, single replicate, Fig. 6e",[10],11.4295 and 17.9078 and 14.2342 and 19.1099
same,"cell killing, Means, Fig. 6e","10 μM, NT cells",24.11
same,"cell killing, single replicate, Fig. 6e","10 μM, NT cells",29.5378 and 18.9356 and 23.5884 and 24.3846
same,"cell killing, Means, Fig. 6e",[11],46.91
same,"cell killing, single replicate, Fig. 6e",[11],43.2704 and 47.0695 and 47.7293 and 49.5621
same,"cell killing, Means, Fig. 6e",[12],46.58
same,"cell killing, single replicate, Fig. 6e",[12],39.3517 and 47.3098 and 45.3387 and 54.323
same,"cell killing, Means, Fig. 6e",[13],29.48
same,"cell killing, single replicate, Fig. 6e",[13],34.2513 and 25.8478 and 33.2665 and 24.5352
same,"cell killing, Means, Fig. 6e",[14],29.83
same,"cell killing, single replicate, Fig. 6e",[14],29.1476 and 34.1243 and 24.0842 and 31.9573
same,"cell killing, Means, Fig. 6e",[15],28.16
same,"cell killing, single replicate, Fig. 6e",[15],27.8321 and 21.0649 and 28.437 and 35.311
same,"Bottom, best-fit value, log(agonist) vs. response (three parameters)",[16],30.67
same,"LogEC50, best-fit value",[16],-7.891
same,Span (best-fit value),[16],32.29
same,"Top, best-fit value, log(agonist) vs. response (three parameters)",[16],62.96
same,"Bottom, best-fit value, log(agonist) vs. response (three parameters)",[17],18.53
same,"LogEC50, best-fit value",[17],-4.358
same,Span (best-fit value),[17],32.38
same,"Top, best-fit value, log(agonist) vs. response (three parameters)",[17],50.91
same,Bottom (best-fit value),[18],37.79
same,Span (best-fit value),[18],24.09
same,Top (best-fit value),[18],61.87
same,Bottom (best-fit value),[19],32.14
same,Span (best-fit value),[19],22.27
same,Top (best-fit value),[19],54.4
same,Bottom (best-fit value),[20],19.82
same,Span (best-fit value),[20],7.278
same,Top (best-fit value),[20],27.1
same,Bottom (best-fit value),[21],17.84
same,Span (best-fit value),[21],32.36
same,Top (best-fit value),[21],50.2
